Source: US20150366819A1, “COMPOSITIONS AND METHODS FOR TREATING HOOF DISEASES” (AGROCHEM, INC., priority 2008, published 2015)

Legend:
[1] = tested on: digital dermatitis lesions; assay: Actual field application on digital dermatitis lesions (scab formation); assay type: in vivo, cow; details: glutaraldehyde at less than 5%, applied on digital dermatitis lesions
[2] = tested on: Hydrolyzed Bovine Dry Collagen protein medium; assay: Cross-linking test: skin (crust) formation on protein medium after spraying
Procedure: Tests were performed in order to obtain a skin (crust) on the protein medium by using a cross-linking agent. Time, temperature and skim formation were monitored. Tests were performed at 40° F.—both medium and solutions were cooled to test temperature. Test medium was prepared by mixing a solution containing 85% D.I. water and 15% Hydrolyzed Bovine Dry Collagen (purchased from Milligan & Higgens). Approx 4 oz of the preparation was put into Petri dishes, placed in a refrigerator for thirty minutes before reacclimatizing at room temperature, ready for testing. Subsequently, the various test solutions were poured into 4 oz bottles with spray nozzles and 10 ml of solution was sprayed onto the medium in the petri dishes from a distance of 6 inches, timed and viewed at 15 minute intervals and the contents of the petri dish was then scored for skin formation. The time and extent of skin formation was noted and transposed to graphs (see FIGS. 1-4).
A second series of tests were run using Egg Albumin Powder (purchased from J.T. Baker) as the protein medium, prepared by mixing 85% D.I. water and 15% Egg Albumin Powder. Both test produced identical results.
Lab testing was performed to assess cross-linking ability of various compositions. […]

Structure (SMILES)	facilitating adequate scab formation in an acceptable time span [1]	cross-linking of test samples (in words) ([2]; glutaraldehyde reduced to less than 5%, FIG. 2)	cross-linking effects, maximum extent of skin formation ([2]; glyoxal alone, scored from 0 to 10, FIG. 3)
O=CCCCC=O [glutaraldehyde]	ineffective	significantly less cross-linking	
O=CC=O [glyoxal]			2.5
